Results from patent US20150250166A1, “NOOTKATONE AS AN INSECTICIDE AND INSECT REPELLENT” (ALLYLIX, INC., priority 2012, published 2015).

System: adult cat fleas (Ctenocephalides felis)
Experiment: Direct spray knockdown of adult cat fleas
Assay type: in vivo
Settings: 10% nootkatone; for cat fleas knocked down, average count of 5 trials (of 10): 0.1% BHT in isopropanol
Method: A direct spray formulation, containing 10% nootkatone, 0.1% butylated hydroxytoluene (BHT) in isopropanol, stored at ambient temperature and humidity, was tested for efficacy for knockdown and mortality among adult cat fleas (Ctenocephalides felis). Five replicates of 10 adult cat fleas (El Labs Inc (Soquel, Calif.)) were emptied from 9 dram vials into 5 gallon HDPE Payliner® pail liners lined with paper towels. Each replicate was sprayed manually with 1 gram±0.1 grams of the 10% nootkatone formulation from the rim of the pail liner. The spray bottle was weighed before and after treating each replicate to confirm the weight of the test sample dispensed. Five control replicates of 10 adult cat fleas were treated with isopropyl alcohol, following the same protocol. The study provided a single treatment of 10% nootkatone formulation or isopropyl alcohol. All spraying took place in a vented, stainless steel Peet Grady chamber (6×6×6 ft).
The average weight of isopropanol and 10% nootkatone formulation applied to the five replicates was 1.0 g and 1.07 g, respectively. […] Knockdown was defined as the failure of the cat flea to jump even following exhalation of a technician into the pail liner.

C=C(C)[C@@H]1CCC2=CC(=O)C[C@@H](C)[C@]2(C)C1 [nootkatone, 4,4a,5,6,7,8-hexahydro-6-isopropenyl-4,4a-dimethyl-2(3H)-naphtalenone]
cat flea knockdown efficacy, in words: not effective in knocking down cat fleas | cat fleas knocked down, average count of 5 trials (of 10) (0.5 min): 0.2 | cat fleas knocked down, average count of 5 trials (of 10) (1 min): 0.2 | cat fleas knocked down, average count of 5 trials (of 10) (2 min): 0.4 | cat fleas knocked down, average count of 5 trials (of 10) (3 min): 0 | cat fleas knocked down, average count of 5 trials (of 10) (4 min): 0.2 | cat fleas knocked down, average count of 5 trials (of 10) (5 min): 0.4 | cat fleas knocked down, average count of 5 trials (of 10) (15 min): 0 | fleas knocked down, in words (15 minutes): no fleas were knocked down | fleas knocked down (within the first 5 minutes): no more than 4%
